Assay results taken from article PMC3690672 (European journal of nuclear medicine and molecular imaging, 2009).
Several values for one entry are separate records, joined by “and”; a condition that tells them apart may be missing. Equal values may be shown once. Where a name gives a salt, the structure may show the parent alone. Read-outs that look alike come from different tables or passages of the source.

Experiments:
[1] = test system: P-glycoprotein (P-gp) at the blood-brain barrier; format: in vivo, rat; conditions: tariquidar 15 mg/kg or elacridar 5 mg/kg at 60 min after radiotracer injection
[2] = Tariquidar or elacridar concentrations in plasma and brain by LC/MS; format: in vivo; conditions: rat, 5 mg/kg; for concentration at 180 min: intravenous
[3] = target: T1, P-glycoprotein (P-gp) at the blood-brain barrier (Rattus norvegicus, UniProt Q6PSM0); experiment: in vivo
[4] = target: T1, P-glycoprotein (P-gp) at the blood-brain barrier; conditions: for DV (Logan) of VPM / DV of VPM (2T4K model) / K1 of VPM (2T4K model) / k2 of VPM (2T4K model) / k3 of VPM (2T4K model) / k4 of VPM (2T4K model): whole brain, PET 120 min after, mean±SD
[5] = test system: multidrug resistance-associated proteins (MRPs), such as MRP1; conditions: cited from earlier work
[6] = Hill fit of whole-brain DV vs inhibitor dose

T1 sequence (Q6PSM0 1-1272): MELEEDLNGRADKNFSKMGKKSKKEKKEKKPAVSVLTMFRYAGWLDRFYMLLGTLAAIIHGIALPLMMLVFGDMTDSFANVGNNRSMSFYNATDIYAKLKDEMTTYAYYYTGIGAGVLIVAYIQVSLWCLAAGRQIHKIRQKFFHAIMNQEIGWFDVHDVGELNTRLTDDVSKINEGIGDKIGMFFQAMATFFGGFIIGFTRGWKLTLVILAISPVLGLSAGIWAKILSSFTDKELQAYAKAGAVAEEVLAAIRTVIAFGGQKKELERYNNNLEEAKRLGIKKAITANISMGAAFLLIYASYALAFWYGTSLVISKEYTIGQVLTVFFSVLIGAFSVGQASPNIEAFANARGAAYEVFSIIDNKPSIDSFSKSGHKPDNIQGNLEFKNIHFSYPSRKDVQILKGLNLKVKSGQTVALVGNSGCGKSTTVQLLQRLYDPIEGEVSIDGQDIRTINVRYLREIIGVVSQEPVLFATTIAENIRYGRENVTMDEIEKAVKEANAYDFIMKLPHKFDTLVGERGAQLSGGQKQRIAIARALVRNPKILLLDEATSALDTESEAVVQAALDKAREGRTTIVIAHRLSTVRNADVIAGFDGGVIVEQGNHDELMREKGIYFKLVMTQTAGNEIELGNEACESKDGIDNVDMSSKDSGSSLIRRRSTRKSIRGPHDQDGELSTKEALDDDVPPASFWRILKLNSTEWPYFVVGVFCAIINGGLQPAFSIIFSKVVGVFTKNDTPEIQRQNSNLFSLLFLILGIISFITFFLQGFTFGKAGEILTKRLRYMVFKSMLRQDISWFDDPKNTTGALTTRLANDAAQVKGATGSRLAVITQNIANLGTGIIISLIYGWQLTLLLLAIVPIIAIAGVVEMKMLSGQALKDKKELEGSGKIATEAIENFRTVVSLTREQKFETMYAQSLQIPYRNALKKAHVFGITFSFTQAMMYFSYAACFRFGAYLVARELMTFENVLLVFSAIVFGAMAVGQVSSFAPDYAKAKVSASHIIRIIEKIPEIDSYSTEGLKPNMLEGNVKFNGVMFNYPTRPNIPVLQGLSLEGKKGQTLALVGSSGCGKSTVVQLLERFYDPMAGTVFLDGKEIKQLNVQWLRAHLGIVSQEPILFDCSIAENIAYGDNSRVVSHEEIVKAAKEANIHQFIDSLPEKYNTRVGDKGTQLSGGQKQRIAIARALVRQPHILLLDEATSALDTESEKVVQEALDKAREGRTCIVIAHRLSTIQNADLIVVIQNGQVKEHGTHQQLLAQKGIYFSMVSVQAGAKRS

## COc1cc2c(cc1OC)CN(CCc1ccc(NC(=O)c3cccc4c(=O)c5cccc(OC)c5[nH]c34)cc1)CC2 [elacridar, elacridar hydrochloride]
[1]
  Time of peak VPM brain uptake (maximum effect) after inhibitor injection: 30 ± 5 min and 30 min
[2]; brain
  concentration at 180 min: 5190 ± 1420 ng/mL
[2]; brain, iv
  Kp at 180 min: 16.8 ± 5.8
[2]; plasma
  concentration at 180 min: 316 ± 61 ng/mL
[3]
  EC50 at 180 min: 0.115 ± 0.0222 µg/mL
[3]; Sprague-Dawley, iv
  ED50 at 120 min: 1.2 ± 0.1 mg/kg
[4]; [6]
  DVmax (maximum effect): 11.4±0.7 ml·ml^−1
  Hill factor n: 5.2±2.8
[4]; at maximum effective doses, rat brain
  Maximum increase in VPM brain distribution (DV) over baseline: up to 11 fold
[4]; inhibitor 0.3 mg/kg
  Whole-brain DV increase (factor) as compared to baseline scans: 1.0±0.6
[4]; inhibitor 1 mg/kg
  Whole-brain DV increase (factor) as compared to baseline scans: 3.5±1.5
[4]; inhibitor 2 mg/kg
  Whole-brain DV increase (factor) as compared to baseline scans: 9.4±1.5
[4]; inhibitor 5 mg/kg
  Whole-brain DV increase (factor) as compared to baseline scans: 8.9±1.4
[4]; inhibitor 7.5 mg/kg
  Whole-brain DV increase (factor) as compared to baseline scans: 11.3±0.2
[4]; inhibitor 0.3 mg/kg i.v.
  DV (Logan) of VPM: 1.22±0.51 (2.9) ml·ml^−1
  DV of VPM (2T4K model): 1.28±0.54 (3.1) ml·ml^−1
  K1 of VPM (2T4K model): 0.13±0.10 (16.5) ml·ml^−1·min^−1
  k2 of VPM (2T4K model): 0.29±0.06 (36.5) min^−1
  k3 of VPM (2T4K model): 0.14±0.02 (41.4) min^−1
  k4 of VPM (2T4K model): 0.07±0.01 (16.7) min^−1
[4]; inhibitor 1 mg/kg i.v.
  DV (Logan) of VPM: 4.47±1.51 (0.9) ml·ml^−1
  DV of VPM (2T4K model): 4.49±1.51 (2.9) ml·ml^−1
  K1 of VPM (2T4K model): 0.57±0.19 (18.1) ml·ml^−1·min^−1
  k2 of VPM (2T4K model): 0.33±0.10 (78.9) min^−1
  k3 of VPM (2T4K model): 0.29±0.11 (93.2) min^−1
  k4 of VPM (2T4K model): 0.19±0.06 (33.3) min^−1
[4]; inhibitor 2 mg/kg i.v.
  DV (Logan) of VPM: 11.72±1.47 (0.6) ml·ml^−1
  DV of VPM (2T4K model): 12.00±1.49 (2.4) ml·ml^−1
  K1 of VPM (2T4K model): 0.92±0.16 (7.2) ml·ml^−1·min^−1
  k2 of VPM (2T4K model): 0.18±0.06 (42.2) min^−1
  k3 of VPM (2T4K model): 0.29±0.09 (68.5) min^−1
  k4 of VPM (2T4K model): 0.22±0.03 (21.1) min^−1
[4]; inhibitor 5 mg/kg i.v.
  DV (Logan) of VPM: 11.16±1.44 (1.1) ml·ml^−1
  DV of VPM (2T4K model): 11.40±1.45 (3.8) ml·ml^−1
  K1 of VPM (2T4K model): 0.93±0.26 (17.0) ml·ml^−1·min^−1
  k2 of VPM (2T4K model): 0.22±0.06 (58.8) min^−1
  k3 of VPM (2T4K model): 0.28±0.05 (79.7) min^−1
  k4 of VPM (2T4K model): 0.16±0.01 (35.4) min^−1
[4]; inhibitor 7.5 mg/kg i.v.
  DV (Logan) of VPM: 14.20±0.13 (0.4) ml·ml^−1
  DV of VPM (2T4K model): 14.55±0.06 (2.6) ml·ml^−1
  K1 of VPM (2T4K model): 0.98±0.08 (6.4) ml·ml^−1·min^−1
  k2 of VPM (2T4K model): 0.15±0.02 (43.5) min^−1
  k3 of VPM (2T4K model): 0.25±0.07 (55.4) min^−1
  k4 of VPM (2T4K model): 0.22±0.04 (30.3) min^−1
[5]
  Inhibition of MRPs, such as MRP1: do not inhibit
